Patent US20240092756A1, “METHODS AND COMPOSITION FOR KRAS MODIFICATIONS” (2692372 ONTARIO, INC., priority 2020, published 2024)

Legend:
KRAS G12C [1] = target: T1, KRAS G12C (Homo sapiens, UniProt P01116, G12C); assay: Differential scanning fluorimetry, KRAS G12C; assay type: binding; parameters: purchased; key: Y: protein destabilized; N: protein not destabilized; details: 37° C. 5 hours incubation
Description: (§1) KRas proteins at 0.05 mg/ml in buffer Hepes, 147 mM NaCl, 2% glycerol, 5 mM MgCl2, 1 mM EDTA, 10 μM GDP, pH 8.0 were incubated in the presence desired concentration of compounds (5% DMSO final concentration) at 37° C. for 5 hours. After incubation, Sypro Oange to a final concentration of 5× was added to each sample. 20 μl aliquots of samples were transferred PCR tubes, sealed with caps, and run in a BioRad CFX96 RTPCR thermocycler. In the instrument, the samples were heated at a rate of 1° C./min from 25 to 90 degrees. Fluorescence readings were taken every 1 degree. The data generated was exported and analyzed using GraphPad-Prism software. The denaturation curves were fit using a Boltzmann sigmoidal equation to calculate melting temperatures (Tm).

[2] = target: KRAS G12C Lite (SEQ ID NO:3) (Homo sapiens, UniProt P01116, C118S/C51S/C80S/G12C/S136P/S39C); assay: Intact mass analysis (LC-MS) of covalent modification, KRAS G12C Lite; assay type: binding; parameters: key to KRAS Lite Modification: a: KRAS Lite modified; details: for KRAS Lite Modification: intact mass spectrometry, covalent modification of KRAS G12C Lite
Description: (§2) The covalent modification of the proteins with the compounds were evaluated using intact mass analysis by liquid chromatography-mass spectrometry instrument (LC-MS/MS).
(§3) The reaction solution (20 μL) was prepared in 96-well plate and contained the protein (2 μM), the compound (100 μM), HEPES buffer (20 mM, pH 8), 2% DMSO, 2% glycerol, and 150 mM NaCl. The reaction was allowed to proceed for 24 h at 25° C. The reaction solution (1 μL) was injected into the LC/MS/MS without any further sample preparation.
(§4) The LC-MS/MS instrument comprises of a Waters G2-XS quadrupole-time of flight (QTof) mass spectrometer and a Waters Acuity I-class Ultra-High Performance Liquid Chromatography (UPLC) system. The I-class UPLC system includes a binary solvent manager (BSM), and an Acquity sample manager (SM). The mobile phase consisted of: A) 0.1% (v/v) formic acid in MilliQ water; B) 0.1% (v/v) formic acid acetonitrile. Gradients were run over 5 min and proceeded as follows: A:B, 85:15, 0.0-0.7 min, 85:15→15:85, 0.7-1.5 min, 10:90, 1.5-4 min, 10:90→85:15, 4-4.5 min, 85:15, 4.5-5 min. The analytical column was a Waters BEH C4 column 1.7 μm (50×1 mm) column with pore sizes of 300 Å. The TOF MS data was collected in positive ion mode (m/z of 400-2000 Da) using MassLynx software (Waters).
(§5) The spectral deconvolution was performed using UNIFI software (Waters). The added mass of the protein upon covalent modification to cysteine residues were specified. Multiple modification of up to 8 cysteine was allowed. All the adducts with signal intensities of <2% of the base peak were ignored. The % modification was calculated as the adduct signal intensity over the total intensities of the protein peaks and the adducts.

KRAS G12C Lite = KRAS G12C Lite (Homo sapiens, UniProt P01116, C118S/C51S/C80S/G12C/S136P/S39C); assay: Differential scanning fluorimetry, KRAS G12C Lite; assay type: binding; parameters: key: Y: protein destabilized; N: protein not destabilized; details: 37° C. 5 hours incubation
Description: as §1

[3] = target: T2, KRAS G12C (SEQ ID NO:1 or SEQ ID NO:2) (Homo sapiens, UniProt P01116, G12C); assay: Intact mass analysis (LC-MS) of covalent modification, KRAS G12C; assay type: binding; parameters: key to KRAS G12C Modification: b: KRAS G12C modified; details: for KRAS G12C Modification: intact mass spectrometry, covalent modification of KRAS G12C FL
T2 construct: purchased
Description: as §2, §3, §4, §5

KRAS G12C [4] = target: T1, KRAS G12C; assay: SOS1-catalyzed KRAS coupled nucleotide exchange assay (Alpha technology); assay type: biochemical; parameters: His; key: A: KRAS G12C bound and modulated; details: inhibition of SOS1 mediated KRAS nucleotide exchange
Method in brief: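 Alpha readout of c-RAF RBD binding to GTP-bound KRAS, normalized to DMSO. Method I: 20 nM GDP-KRAS G12C/C118A with compound 5 min, then 1.25 mM GTP + 500 nM SOS-1 30 min, pH 7.4 HEPES/MgCl2 buffer, 50 nM RBD. Method II: 50 nM GDP-KRAS G12C with compound 2 h, 1 mM GTP + 500 nM SOS-1 30 min, 2.5 nM GST-RBD; RT throughout.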

[5] = test system: phospho-ERK1/2 in MIA PaCa-2 cells (express KRAS G12C); assay: ERK1/2 phosphorylation in MIA PaCa-2 cells; assay type: cell-based, human; parameters: key: X: KRAS G12C bound and modulated in cells
[6] = modification by one molecule of compound

SMILES | KRAS G12C DSF ΔTm (KRAS G12C [1]) | KRAS Lite Modification [2] | KRAS G12C Lite DSF ΔTm (KRAS G12C Lite) | KRAS G12C Modification [3] | KRAS-SOS1 Nucleotide Exchange (KRAS G12C [4]) | pERK - MIA PaCa-2 - (6 hours, 5 uM) [5] | covalent adduct mass, His-tagged KRAS G12C Lite [2, 6] | covalent adduct mass, His-tagged KRAS G12C [3, 6]
Cc1ccnc(C(C)C)c1-n1c(=O)nc(N2CCN(S(=O)(=O)c3c(F)c(F)c(F)c(F)c3OC(F)F)C[C@@H]2C)c2cc(F)c(Cl)nc21 [Compound 12A, (S)-7-chloro-4-(4-((2-(difluoromethoxy)-3,4,5,6-tetrafluorophenyl)sulfonyl)-2-methylpiperazin-1-yl)-6-fluoro-1-(2-isopropyl-4-methylpyridin-3-yl)pyrido[2,3-d]pyrimidin-2(1H)-one] | Y | a | Y | b | A | – | – | –
Cc1ccnc(C(C)C)c1-n1c(=O)nc(N2CC(NS(=O)(=O)c3c(F)c(F)c(F)c(F)c3C(F)(F)F)C2)c2cc(F)c(Cl)nc21 [Compound 13A, N-(1-(7-chloro-6-fluoro-1-(2-isopropyl-4-methylpyridin-3-yl)-2-oxo-1,2-dihydropyrido[2,3-d]pyrimidin-4-yl)azetidin-3-yl)-2,3,4,5-tetrafluoro-6-(trifluoromethyl)benzenesulfonamide] | Y | a | Y | b | A | – | – | –
Cc1ccnc(C(C)C)c1-n1c(=O)nc(NS(=O)(=O)c2c(F)c(F)c(F)c(F)c2F)c2cc(F)c(-c3c(O)cccc3F)nc21 [Compound 3A, 2,3,4,5,6-pentafluoro-N-(6-fluoro-7-(2-fluoro-6-hydroxyphenyl)-1-(2-isopropyl-4-methylpyridin-3-yl)-2-oxo-1,2-dihydropyrido[2,3-d]pyrimidin-4-yl)benzenesulfonamide] | – | a | – | b | A | X | – | –
Cc1ccnc(C(C)C)c1-n1c(=O)nc(N2CCN(S(=O)(=O)c3c(F)c(F)c(F)c(F)c3OC(F)F)C[C@@H]2C)c2cc(F)c(-c3c(O)cccc3F)nc21 (single isomer, unassigned) [Compound 17A] | – | a | – | b | A | X | – | –
Cc1ccnc(C(C)C)c1-n1c(=O)nc(N2CCN(S(=O)(=O)c3c(F)c(F)c(F)c(F)c3C(F)(F)F)C[C@@H]2C)c2cc(F)c(Cl)nc21 [Compound 11A, 7-chloro-6-fluoro-1-(2-isopropyl-4-methylpyridin-3-yl)-4-((S)-2-methyl-4-((2,3,4,5-tetrafluoro-6-(trifluoromethyl)phenyl)sulfonyl)piperazin-1-yl)pyrido[2,3-d]pyrimidin-2(1H)-one] | Y | a | Y | b | – | – | – | –
Cc1ccnc(C(C)C)c1-n1c(=O)nc(N2CCN(S(=O)(=O)c3c(F)c(F)c(F)c(F)c3C(F)(F)F)C[C@@H]2C)c2cc(F)c(-c3c(O)cccc3F)nc21 [Compound 6A, 6-fluoro-7-(2-fluoro-6-hydroxyphenyl)-1-(2-isopropyl-4-methylpyridin-3-yl)-4-((S)-2-methyl-4-((2,3,4,5-tetrafluoro-6-(trifluoromethyl)phenyl)sulfonyl)piperazin-1-yl)pyrido[2,3-d]pyrimidin-2(1H)-one] | – | a | – | b | A | X | 22,229 Da | 22,120 Da
CN1CCC[C@H]1COc1nc2c(c(N3CCN(S(=O)(=O)c4c(F)c(F)c(F)c(F)c4C(F)(F)F)CC3)n1)CCN(c1cccc3cccc(Cl)c13)C2 (stereo in doubt) [Compound 42A, (7R)-7-(8-chloro-1-naphthyl)-2-[[(1S,2S)-1-methylpyrrolidin-2-yl]methoxy]-4-[4-[2,3,4,5-tetrafluoro-6-(trifluoromethyl)phenyl]sulfonylpiperazin-1-yl]-6,8-dihydro-5H-pyrido[3,4-d]pyrimidine] | – | a | Y | b | A | – | – | –
